For this assay, the target named is T1, somatostatin receptor (Rattus norvegicus, UniProt P30680).
T1 construct: endogenous in cells; host or cells: AR42J rat pancreatic tumor cell line (membrane preparation)
Description: Inhibition of binding of [125I-Tyr11]somatostatin-14 to AR42J rat pancreatic tumor cell membranes. The following applies: inhibition constant; displacement of 0.5 nM [125I-Tyr11]somatostatin-14 from AR42J cell membranes, 25 min at 30° C; free peptides and [Re=O]-complexed peptides. How it is done: Inhibition of Binding of [^125 I-Tyr^11 ]somatostatin-14 to AR42J Rat Pancreatic Tumor Cell Membranes
The rat pancreatic tumor cell line AR42J which expresses the somatostatin receptor was cultured in Dulbecco's minimal essential media (DMEM) supplemented with 10% fetal bovine serum (FBS) and 8 mM glutamine in a humdified 5% CO2 atmosphere at 37° C. in T-flasks. Harvested cells were homogenized in cold 50 mM Tris-HCl buffer (pH 7.4) and the homogenate then centrifuged at 39,000 g for 10 min at 4° C. Pellets were washed once with buffer and then resuspended in an ice-cold solution of 10 mM Tris-HCl (pH 7.4). Equal aliquots of this cell membrane preparation were incubated with [^125 I-Tyr^11 ]somatostatin-14 (at a final concentration of 0.5nM and 750,000 cpm/mL, at a specific activity of 2000 Ci/mmol, Amersham, Arlington Heights, Ill.) and peptide at a final concentration of from 10^-11 M to 10^-6 M in a solution of 50 mM HEPES (pH 7.4) containing 1% bovine serum albumin (BSA), 5 mM MgCl2, Trasylol (200,000 International Units), bacitracin (0.02 mg/mL) and phenylmethylsulfonylfluoride (0.02 mg/mL) for 25 min at 30° C. Using a filtration manifold, this mixture was filtered through a polyethyleneimine-washed GC/F filter (Whatman, Maidstone, England), and the residue remaining on the filter wastled thrice with 5 mL cold HEPES buffer. The filter and a sample of the filter washings were then counted in a gamma counter. To assess non-specific binding, the assay was performed in the presence of unlabeled somatostatin-14 at 200 nM. Data analysis including Hill plots of the data provided inhibition constants (see Bylund & Yamamura, "Methods of receptor binding", in Methods in Neurotransmitter Receptor Analysis, Yamamura et al., eds., Raven Press: New York, 1990).

pKi: −log10 of the molar value. Starred links: 1 amine or outer side, 2 acyl side, 3 side chain; linkers in the order of their positions; H or OH if unused. Non-standard residues stand in square brackets, D forms with d. Residues, ends and D or L forms follow the SMILES beside them. *: point of attachment. DTPA = O=C(O)CN(CCN(CC(=O)O)CC(=O)O)CCN(CC(=O)O)CC(=O)*; Phe(4-Cl) = N[C@@H](Cc1ccc(Cl)cc1)C(=O)O; X4 = CC(C)(S)CNCCN(CCCCC(=O)*)CC(C)(C)S; 2Nal = N[C@@H](Cc1ccc2ccccc2c1)C(=O)O; d2Nal = N[C@H](Cc1ccc2ccccc2c1)C(=O)O; εLys = N[C@@H](CCCCN[*:1])C(=O)[*:2]; Acm = CC(=O)NC*

T1 sequence (P30680 whole entry): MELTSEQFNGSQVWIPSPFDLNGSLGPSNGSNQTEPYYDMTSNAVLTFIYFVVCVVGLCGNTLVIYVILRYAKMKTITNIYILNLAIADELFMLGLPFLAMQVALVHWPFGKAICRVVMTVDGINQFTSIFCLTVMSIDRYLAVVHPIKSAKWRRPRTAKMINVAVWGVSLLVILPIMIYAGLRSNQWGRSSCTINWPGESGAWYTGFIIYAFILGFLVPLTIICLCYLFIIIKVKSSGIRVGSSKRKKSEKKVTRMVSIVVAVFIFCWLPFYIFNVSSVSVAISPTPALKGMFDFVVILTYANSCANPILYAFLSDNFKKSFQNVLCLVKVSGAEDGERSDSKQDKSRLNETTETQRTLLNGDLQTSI

Turning to FD.Cpa.YWD KTFT(ε-K)GC.amide, the pKi (in general, the Ki on a negative log10 scale, so that one unit is a factor of ten) was 9.44.

Take Ac.CGCFD.Cpa.YWD KTFT.amide: the pKi was 8.39.

Turning to Ac.FD FYWD KTFTGGG(ε-K)GC.amide, the pKi was 8.09.

`CC(=O)NCSC[C@H](NC(C)=O)C(=O)NCC(=O)N[C@@H](CSCNC(C)=O)C(=O)N[C@H](Cc1ccccc1)C(=O)N[C@@H](Cc1ccc(Cl)cc1)C(=O)N[C@@H](Cc1ccc(O)cc1)C(=O)N[C@H](Cc1c[nH]c2ccccc12)C(=O)N[C@@H](CCCCN)C(=O)N[C@H](C(=O)N[C@@H](Cc1ccccc1)C(=O)N[C@H](C(N)=O)[C@@H](C)O)[C@@H](C)O` [Ac.CAcm GCAcm FD.CPa.YWD KTFT.amide, Ac.CAcm GCAcm FD.Cpa.YWD KTFT.amide] (Ac-C(Acm)GC(Acm)[dF][Phe(4-Cl)]Y[dW]KTFT-NH2) gave a pKi of 9.14.

[DTPA].Aca.FD.Cpa.YWD KTFT(ε-K)GC.amide showed a pKi of 8.09.

The compound AKCGGGFD.Cpa.YWD KTFT.amide had a pKi of 9.12.

Turning to [DTPA].FD.Cpa.YWD KTFT(ε-K)GC.amide, the pKi was 10.57.

In turn, “FD.CPa.YWD KTFTCGC.amide (not fully specified; Re=O complex; FD.CPa.YWD prefix; C-terminal amide)” gave a pKi of 9.43. Compared with the last compound, the pKi is 1.14 log units lower.

The compound `C[C@@H](O)[C@H](NC(=O)[C@H](Cc1ccccc1)NC(=O)[C@@H](NC(=O)[C@H](CCCCN)NC(=O)[C@@H](Cc1c[nH]c2ccccc12)NC(=O)[C@H](Cc1ccc(O)cc1)NC(=O)[C@H](Cc1ccc(Cl)cc1)NC(=O)[C@@H](Cc1ccc2ccccc2c1)NC(=O)CN(CCN(CCN(CC(=O)O)CC(=O)O)CC(=O)O)CC(=O)O)[C@@H](C)O)C(=O)NCCCC[C@H](N)C(=O)NCC(=O)N[C@@H](CS)C(=O)N[C@@H](CCCCN)C(=O)N[C@@H](CCCCN)C(N)=O` [[DTPA].D-Nal.Cpa.YWD KTFT(ε-K)GCKK.amide] ({DTPA}-[d2Nal][Phe(4-Cl)]Y[dW]KTFT[εLys]GCKK-NH2) showed a negative logarithm of the Ki (pKi) of 8.89. Compared with the last compound, the pKi is 0.54 log units lower.

`CC(=O)NCSC[C@H](NC(=O)CNC(=O)[C@H](CSCNC(C)=O)NC(=O)CNC(=O)CNC(=O)CNC(=O)[C@@H](NC(=O)[C@H](Cc1ccccc1)NC(=O)[C@@H](NC(=O)[C@H](CCCCN)NC(=O)[C@@H](Cc1c[nH]c2ccccc12)NC(=O)[C@H](Cc1ccc(O)cc1)NC(=O)[C@H](Cc1ccc(Cl)cc1)NC(=O)[C@H](N)Cc1ccccc1)[C@@H](C)O)[C@@H](C)O)C(N)=O` [FD.Cpa.YWD KTFT.GGGCAcm GCAcm.amide] (H-[dF][Phe(4-Cl)]Y[dW]KTFTGGGC(Acm)GC(Acm)-NH2) had a pKi of 8.62. Against the preceding compound, the pKi is 0.27 log units lower.

In the case of `CSC[C@H](NC(=O)[C@@H](NC(=O)[C@H](CCCCN)NC(=O)[C@@H](Cc1c[nH]c2ccccc12)NC(=O)[C@H](Cc1ccc(O)cc1)NC(=O)[C@H](CSC)NC(=O)[C@@H](Cc1ccc2ccccc2c1)NC(=O)[C@@H](N)CCCCNC(=O)CCCCN(CCNCC(C)(C)S)CC(C)(C)S)C(C)C)C(=O)N[C@H](C(N)=O)[C@@H](C)O` [K.[BAT].D-Nal.CMe YWD KVCMe T.amide, K(BAT).D-Nal.CMe YWD KVCMe T.amide] (H-K(X4)[d2Nal]C(Me)Y[dW]KVC(Me)T-NH2; N-terminus assumed), the pKi is 8.00.

The compound `C[C@@H](O)[C@H](NC(=O)[C@H](Cc1ccccc1)NC(=O)[C@@H](NC(=O)[C@H](CCCCN)NC(=O)[C@@H](Cc1c[nH]c2ccccc12)NC(=O)[C@H](Cc1ccc(O)cc1)NC(=O)[C@H](Cc1ccccc1)NC(=O)[C@@H](Cc1ccccc1)NC(=O)[C@H](CS)NC(=O)CNC(=O)[C@@H](N)CCCCNC(=O)CN(CCN(CCN(CC(=O)O)CC(=O)O)CC(=O)O)CC(=O)O)[C@@H](C)O)C(N)=O` [[DTPA].(ε-K)GCFD.FYWD KTFT.amide] (H-K(DTPA)GC[dF]FY[dW]KTFT-NH2) showed a pKi of 8.48.

FD.Cpa.YWD K.Abu.Nal.T(ε-K)GC.amide gave a pKi of 8.48.

As for `CC(=O)N[C@H](Cc1ccccc1)C(=O)N[C@@H](Cc1ccccc1)C(=O)N[C@@H](Cc1ccc(O)cc1)C(=O)N[C@H](Cc1c[nH]c2ccccc12)C(=O)N[C@@H](CCCCN)C(=O)N[C@H](C(=O)N[C@@H](Cc1ccccc1)C(=O)N[C@H](C(=O)NCC(=O)NCC(=O)NCC(=O)NCCCC[C@H](N)C(=O)NCC(=O)N[C@@H](CS)C(N)=O)[C@@H](C)O)[C@@H](C)O` [Ac.FD FYWD KTFTGGG(ε-K)GC.amide] (Ac-[dF]FY[dW]KTFTGGG[εLys]GC-NH2), the pKi was 8.09.

The compound AKCGGGFD FYWD KTFT.amide had a negative logarithm of the Ki (pKi) of 8.54.

Compound maGGGFD.Cpa.YWD KTFT.amide had a pKi of 9.01.

Consider Ac.FD FYWD KTFT(ε-K)GC.amide, for which the pKi is 8.82.

The compound `CC(=O)N[C@@H](CS)C(=O)NCC(=O)N[C@@H](CS)C(=O)N[C@H](Cc1ccccc1)C(=O)N[C@@H](Cc1ccc(Cl)cc1)C(=O)N[C@@H](Cc1ccc(O)cc1)C(=O)N[C@H](Cc1c[nH]c2ccccc12)C(=O)N[C@@H](CCCCN)C(=O)N[C@H](C(=O)N[C@@H](Cc1ccccc1)C(=O)N[C@H](C(N)=O)[C@@H](C)O)[C@@H](C)O` [Ac.CGCFD.Cpa.YWD KTFT.amide] (Ac-CGC[dF][Phe(4-Cl)]Y[dW]KTFT-NH2) had a pKi of 8.36.

Turning to `C[C@@H](O)[C@H](NC(=O)[C@H](CCCCN)NC(=O)[C@@H](Cc1c[nH]c2ccccc12)NC(=O)[C@H](Cc1ccc(O)cc1)NC(=O)[C@H](Cc1ccc(Cl)cc1)NC(=O)[C@H](N)Cc1ccccc1)C(=O)N[C@@H](CS)C(=O)N[C@@H](Cc1ccc2ccccc2c1)C(N)=O` [FD.Cpa.YWD KTC.Nal.amide] (H-[dF][Phe(4-Cl)]Y[dW]KTC[2Nal]-NH2), the negative logarithm of the Ki (pKi) is 8.09. Compared with the last compound, the pKi is 0.27 log units lower.

Consider [DTPA].D-Nal.Cpa.YWD KTFT(ε-K)GC.amide, for which the pKi is 11.15.

Turning to `CC(=O)NCSC[C@H](NC(=O)CNC(=O)[C@H](CSCNC(C)=O)NC(=O)[C@@H](NC(=O)[C@H](Cc1ccccc1)NC(=O)[C@@H](NC(=O)[C@H](CCCCN)NC(=O)[C@@H](Cc1c[nH]c2ccccc12)NC(=O)[C@H](Cc1ccc(O)cc1)NC(=O)[C@H](Cc1ccc(Cl)cc1)NC(=O)[C@H](N)Cc1ccccc1)[C@@H](C)O)[C@@H](C)O)C(N)=O` [FD.CPa.YWD KTFTCAcm GCAcm.amide, FD.Cpa.YWD KTFTCAcm GCAcm.amide] (H-[dF][Phe(4-Cl)]Y[dW]KTFTC(Acm)GC(Acm)-NH2), the pKi was 9.07.

In the case of Ac.FD FYWD KTFGGG(ε-K)KC.amide, the pKi was 8.21.
